This note sets out measurements from patent US10323036B2 (Nimbus Lakshmi, Inc., priority 2016, dated 2019).

Bounds are passed on as bounds.

The experiment deals with human TYK2 (JH2domain-pseudokinase) (Homo sapiens (Human), UniProt P29597). The experiment is described as follows: TYK2 JH2 Domain Binding Assay (KINOMEscan). To be noted: Table 4, JH2 binding assay; read-out: JH2 Kd.
Chain of human TYK2 (JH2domain-pseudokinase) (P29597 556-888): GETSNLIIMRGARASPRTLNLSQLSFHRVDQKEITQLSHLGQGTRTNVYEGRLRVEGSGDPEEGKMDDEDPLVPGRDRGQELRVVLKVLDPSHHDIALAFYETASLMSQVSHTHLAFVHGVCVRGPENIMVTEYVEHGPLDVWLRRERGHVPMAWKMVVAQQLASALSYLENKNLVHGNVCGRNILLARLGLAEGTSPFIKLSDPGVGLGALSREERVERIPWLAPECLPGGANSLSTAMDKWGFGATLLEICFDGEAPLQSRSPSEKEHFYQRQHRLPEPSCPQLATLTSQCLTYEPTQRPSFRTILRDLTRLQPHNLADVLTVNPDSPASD
Usually Kd stands for the free concentration of one partner at which half of the binding sites on the other are occupied at equilibrium, for simple one-to-one binding. On to `COc1c(Cl)cccc1Nc1cc(Nc2ccn(C)n2)nc2[nH]n(C)c(=O)c12` [Compound I-136, 4-((3-chloro-2-methoxyphenyl)amino)-2-methyl-6-((1-methyl-1H-pyrazol 3-yl)amino)-1,2-dihydro-3H-pyrazolo[3,4-b]pyridin-3-one], for which the Kd was in the range of 1 to 10 nM.
For `Cn1ccc(Nc2cc(Nc3ccccc3S(C)(=O)=O)c3c(=O)n(C)[nH]c3n2)n1` [Compound I-137, 2-methyl-6-((1-methyl-1H-pyrazol-3-yl)amino)-4-((2-(methylsulfonyl)phenyl)amino)-1,2-dihydro-3H-pyrazolo[3,4-b]pyridin-3-one] the value was 0.5 to 1 nM.
Under `Cc1ccnc(Nc2cc(Nc3ccccc3S(C)(=O)=O)c3c(=O)n(C)[nH]c3n2)c1` [Compound I-138, 2-methyl-6-((4-methylpyridin-2-yl)amino)-4-((2-(methylsulfonyl)phenyl)amino)-1,2-dihydro-3H-pyrazolo[3,4-b]pyridin-3-one] stands 0.5 to 1 nM; under `Cn1[nH]c2nc(Nc3ccc(C#N)cn3)cc(Nc3ccccc3S(C)(=O)=O)c2c1=O` [Compound I-139, 6-((2-methyl-4-((2-(methylsulfonyl)phenyl)amino)-3-oxo-2,3-dihydro-1H-pyrazolo[3,4-b]pyridin-6-yl)amino)nicotinonitrile], 0.1 to 0.5 nM.
Consider `COC1CN(c2cccc(Nc3cc(Nc4ccccc4S(C)(=O)=O)c4c(=O)n(C)[nH]c4n3)n2)C1` [Compound I-140, 6-((6-(3-methoxyazetidin-1-yl)pyridin-2-yl)amino)-2-methyl-4-((2-(methylsulfonyl)phenyl)amino)-1,2-dihydro-3H-pyrazolo[3,4-b]pyridin-3-one], for which the Kd lay within 1 to 10 nM.
With `COc1c(Nc2cc(NC(=O)C3CC3)nc3[nH]n(C)c(=O)c23)ccc(C(=O)N2CCCC2)c1F` [Compound I-141], the dissociation constant (Kd) is 1 to 10 nM.
For the compound `Cn1[nH]c2nc(Nc3ccccn3)cc(Nc3ccccc3S(C)(=O)=O)c2c1=O` [Compound I-142, 2-methyl-4-((2-(methylsulfonyl)phenyl)amino)-6-(pyridin-2-ylamino)-1,2-dihydro-3H-pyrazolo[3,4-b]pyridin-3-one], the Kd fell in the range of 0.1 to 0.5 nM.
Under `Cn1[nH]c2nc(Nc3ccc(C4CC4)cn3)cc(Nc3ccccc3S(C)(=O)=O)c2c1=O` [Compound I-143, 6-((5-cyclopropylpyridin-2-yl)amino)-2-methyl-4-((2-(methylsulfonyl)phenyl)amino)-1,2-dihydro-3H-pyrazolo[3,4-b]pyridin-3-one] stands 0.1 to 0.5 nM.
Under `COc1c(Cl)cccc1Nc1cc(Nc2ccc(N3CCC3)c(C#N)n2)nc2[nH]n(C)c(=O)c12` [Compound I-144, 3-(azetidin-1-yl)-6-((4-((3-chloro-2-methoxyphenyl)amino)-2-methyl-3-oxo-2,3-dihydro-1H-pyrazolo[3,4-b]pyridin-6-yl)amino)picolinonitrile] stands 0.1 to 0.5 nM; under `COc1c(Cl)cccc1Nc1cc(Nc2ccc(N3CC[C@H](OC)C3)c(C#N)n2)nc2[nH]n(C)c(=O)c12` [Compound I-145, (S)-6-((4-((3-chloro-2-methoxyphenyl)amino)-2-methyl-3-oxo-2,3-dihydro-1H-pyrazolo[3,4-b]pyridin-6-yl)amino)-3-(3-methoxypyrrolidin-1-yl)picolinonitrile], 0.1 to 0.5 nM; under `COc1c(Cl)cccc1Nc1cc(Nc2cnc(C3CC3)c(C#N)n2)nc2[nH]n(C)c(=O)c12` [Compound I-146, 6-((4-((3-chloro-2-methoxyphenyl)amino)-2-methyl-3-oxo-2,3-dihydro-1H-pyrazolo[3,4-b]pyridin-6-yl)amino)-3-cyclopropylpyrazine-2-carbonitrile], over 10 nM.
Under `CCc1ncc(Nc2cc(Nc3cccc(Cl)c3OC)c3c(=O)n(C)[nH]c3n2)nc1C#N` [Compound I-147, 6-((4-((3-chloro-2-methoxyphenyl)amino)-2-methyl-3-oxo-2,3-dihydro-1H-pyrazolo[3,4-b]pyridin-6-yl)amino)-3-ethylpyrazine-2-carbonitrile] stands over 10 nM.
Consider `CCc1ncc(Nc2cc(Nc3cccc(F)c3OC)c3c(=O)n(C)[nH]c3n2)nc1C#N` [Compound I-148, 3-ethyl-6-((4-((3-fluoro-2-methoxyphenyl)amino)-2-methyl-3-oxo-2,3-dihydro-1H-pyrazolo[3,4-b]pyridin-6-yl)amino)pyrazine-2-carbonitrile], for which the Kd is over 10 nM.
Under `COc1c(Nc2cc(NC(=O)C3CC3)nc3[nH]n(C)c(=O)c23)cccc1-n1nc(C)c(C)n1` [Compound I-149] stands over 10 nM; under `Cn1[nH]c2nc(NC(=O)C3CC3)cc(Nc3ccc(C(=O)N4CCCC4)cc3OC(F)F)c2c1=O` [Compound I-151], over 10 nM; under `CCc1ccc(Nc2cc(NC(=O)C3CC3)nc3[nH]n(C)c(=O)c23)c(S(C)(=O)=O)c1` [Compound I-152, N-(4-((4-ethyl-2-(methylsulfonyl)phenyl)amino)-2-methyl-3-oxo-2,3-dihydro-1H-pyrazolo[3,4-b]pyridin-6-yl)cyclopropanecarboxamide], 0.5 to 1 nM.
For `COc1c(Cl)cccc1Nc1cc(Nc2cnc(C(C)(C)OC)c(C#N)n2)nc2[nH]n(C)c(=O)c12` [Compound I-155, 6-((4-((3-chloro-2-methoxyphenyl)amino)-2-methyl-3-oxo-2,3-dihydro-1H-pyrazolo[3,4-b]pyridin-6-yl)amino)-3-(2-methoxypropan-2-yl)pyrazine-2-carbonitrile] the value was 0.5 to 1 nM; for `COc1c(Cl)cccc1Nc1cc(Nc2ccc(C(F)F)c(C#N)n2)nc2[nH]n(C)c(=O)c12` [Compound I-156, 6-((4-((3-chloro-2-methoxyphenyl)amino)-2-methyl-3-oxo-2,3-dihydro-1H-pyrazolo[3,4-b]pyridin-6-yl)amino)-3-(difluoromethyl)picolinonitrile], over 10 nM.
For `Cc1ccc(Nc2cc(Nc3ccc(Cl)cc3S(C)(=O)=O)c3c(=O)n(C)[nH]c3n2)nn1` [Compound I-157, 4-((4-chloro-2-(methylsulfonyl)phenyl)amino)-2-methyl-6-((6-methylpyridazin-3-yl)amino)-1,2-dihydro-3H-pyrazolo[3,4-b]pyridin-3-one] the value was 0.5 to 1 nM.
Consider `COc1c(Cl)cccc1Nc1cc(Nc2cnc(C(C)C)c(C#N)n2)nc2[nH]n(C)c(=O)c12` [Compound I-158, 6-((4-((3-chloro-2-methoxyphenyl)amino)-2-methyl-3-oxo-2,3-dihydro-1H-pyrazolo[3,4-b]pyridin-6-yl)amino)-3-isopropylpyrazine-2-carbonitrile], for which the dissociation constant (Kd) was over 10 nM.
For `Cn1[nH]c2nc(NC(=O)C3CC3)cc(Nc3ccc(C4CCC4)cc3S(C)(=O)=O)c2c1=O` [Compound I-182, N-(4-((4-cyclobutyl-2-(methylsulfonyl)phenyl)amino)-2-methyl-3-oxo-2,3-dihydro-1H-pyrazolo[3,4-b]pyridin-6-yl)cyclopropanecarboxamide] the value was 0.1 to 0.5 nM; for `COc1c(F)cccc1Nc1cc(Nc2cnc(C(C)(C)OC)c(C#N)n2)nc2[nH]n(C)c(=O)c12` [Compound I-190, 6-((4-((3-fluoro-2-methoxyphenyl)amino)-2-methyl-3-oxo-2,3-dihydro-1H-pyrazolo[3,4-b]pyridin-6-yl)amino)-3-(2-methoxypropan-2-yl)pyrazine-2-carbonitrile], 0.5 to 1 nM.
Under `COc1c(F)cccc1Nc1cc(Nc2ccc(C(F)F)c(C#N)n2)nc2[nH]n(C)c(=O)c12` [Compound I-191, 3-(difluoromethyl)-6-((4-((3-fluoro-2-methoxyphenyl)amino)-2-methyl-3-oxo-2,3-dihydro-1H-pyrazolo[3,4-b]pyridin-6-yl)amino)picolinonitrile] stands over 10 nM.
For `Cc1ccc(Nc2cc(Nc3ccc(F)cc3S(C)(=O)=O)c3c(=O)n(C)[nH]c3n2)nn1` [Compound I-198, 4-((4-fluoro-2-(methylsulfonyl)phenyl)amino)-2-methyl-6-((6-methylpyridazin-3-yl)amino)-1,2-dihydro-3H-pyrazolo[3,4-b]pyridin-3-one] the value was 0.1 to 0.5 nM; for `Cc1cc(Nc2cc(Nc3ccc(Cl)cc3S(C)(=O)=O)c3c(=O)n(C)[nH]c3n2)nc(C)n1` [Compound I-199, 4-((4-chloro-2-(methylsulfonyl)phenyl)amino)-6-((2,6-dimethylpyrimidin-4-yl)amino)-2-methyl-1,2-dihydro-3H-pyrazolo[3,4-b]pyridin-3-one], 0.1 to 0.5 nM; for `Cn1[nH]c2nc(NC(=O)C3CC3)cc(Nc3ccc(C4CC4)cc3S(C)(=O)=O)c2c1=O` [Compound I-201, N-(4-((4-cyclopropyl-2-(methylsulfonyl)phenyl)amino)-2-methyl-3-oxo-2,3-dihydro-1H-pyrazolo[3,4-b]pyridin-6-yl)cyclopropanecarboxamide], under 0.1 nM.
With `Cn1[nH]c2nc(Nc3cccc(C#N)n3)cc(Nc3ccc(Cl)cc3S(C)(=O)=O)c2c1=O` [Compound I-203, 6-((4-((4-chloro-2-(methylsulfonyl)phenyl)amino)-2-methyl-3-oxo-2,3-dihydro-1H-pyrazolo[3,4-b]pyridin-6-yl)amino)picolinonitrile], the Kd lay in the range of 0.5 to 1 nM.
Turning to `Cc1cc(Nc2cc(Nc3ccc(C4CC4)cc3S(C)(=O)=O)c3c(=O)n(C)[nH]c3n2)nc(C)n1` [Compound I-206, 4-((4-cyclopropyl-2-(methylsulfonyl)phenyl)amino)-6-((2,6-dimethylpyrimidin-4-yl)amino)-2-methyl-1,2-dihydro-3H-pyrazolo[3,4-b]pyridin-3-one], the equilibrium dissociation constant (Kd) lay within 0.5 to 1 nM.
Under `Cc1ncc(Nc2cc(Nc3ccc(Cl)cc3S(C)(=O)=O)c3c(=O)n(C)[nH]c3n2)nc1C` [Compound I-207, 4-((4-chloro-2-(methylsulfonyl)phenyl)amino)-6-((5,6-dimethylpyrazin-2-yl)amino)-2-methyl-1,2-dihydro-3H-pyrazolo[3,4-b]pyridin-3-one] stands 1 to 10 nM.
In the case of `Cc1ccc(Nc2cc(Nc3ccc(Cl)cc3S(C)(=O)=O)c3c(=O)n(C)[nH]c3n2)nc1C(F)(F)F` [Compound I-208, 4-((4-chloro-2-(methylsulfonyl)phenyl)amino)-2-methyl-6-((5-methyl-6-(trifluoromethyl)pyridin-2-yl)amino)-1,2-dihydro-3H-pyrazolo[3,4-b]pyridin-3-one], the Kd was 0.5 to 1 nM.
